Measured values taken from ChEMBL document CHEMBL2390877, “Structural requirements for inhibitory effects of bisphenols on the activity of the sarco/endoplasmic reticulum calcium ATPase” (Bioorg Med Chem, 2013).
Active and inactive are the calls of the source. No cut-off for these calls is given here.

What was measured:
[1] = Inhibition of rabbit skeletal muscle sarco/endoplasmic reticulum calcium ATPase assessed as inhibition of ATP hydrolysis by spectrophotometric analysis; parameters: species or system Oryctolagus cuniculus
Homo sapiens = species on record: Homo sapiens; assay: Inhibition of sarco/endoplasmic reticulum calcium ATPase in human GM08333 cells assessed as inhibition of calcium ion uptake at 50 uM measured for 1 min by Fura-2AM staining assay; type: cell-based
Serum = assay: Drug uptake in human serum; type: ADME, cell-free

Row | SMILES | IC50 [1] | IC50 ([1]; read-out: IC50) [µM] | other results
1 | Nc1cc(C(c2ccc(O)c(N)c2)(C(F)(F)F)C(F)(F)F)ccc1O | Not Active | – | –
2 | CC(C)(c1cc(N)c(O)c(N)c1)c1cc(N)c(O)c(N)c1 | Not Active | – | –
3 | Oc1c(Cl)cc(Cl)cc1Cc1cc(Cl)cc(Cl)c1O | – | 31 | inhibition (Homo sapiens): Active
4 | CC(C)(c1ccc(O)c(C2CCCCC2)c1)c1ccc(O)c(C2CCCCC2)c1 | – | 94 | inhibition (Homo sapiens): Active
5 | Cc1cc(C(C)(C)c2ccc(O)c(C)c2)ccc1O | – | 24 | –
6 | CC(C)(c1ccc(O)c(-c2ccccc2)c1)c1ccc(O)c(-c2ccccc2)c1 | – | 91 | inhibition (Homo sapiens): Active
7 | O=C(c1ccc(O)cc1)c1ccc(O)cc1 | – | 200 | –
8 | CC(C)(c1cc(Br)c(OCC2CO2)c(Br)c1)c1cc(Br)c(OCC2CO2)c(Br)c1 (stereo not drawn) | Not Active | – | –
9 | CC(CCC(=O)O)(c1cc(Cl)c(O)c(Cl)c1)c1cc(Cl)c(O)c(Cl)c1 | – | 25 | –
10 | Oc1ccc(C2(c3ccc(O)cc3)CCCCC2)cc1 | – | 27 | –
11 | CC(C)(c1cc(Cl)c(O)c(Cl)c1)c1cc(Cl)c(O)c(Cl)c1 | – | 5.5 | inhibition (Homo sapiens): Active
12 | CC(C)(c1ccc(O)cc1)c1ccc(O)cc1 [BISPHENOL A] | – | 140 | –
13 | Oc1c(Cl)cc(Cl)c(Cl)c1Cc1c(O)c(Cl)cc(Cl)c1Cl [HEXACHLOROPHENE] | – | 4 | inhibition (Homo sapiens): Active
14 | CC(c1ccc(O)cc1)c1ccc(O)cc1 | – | 90 | –
15 | Cc1cc(C(C)(C)c2cc(C)c(O)c(C)c2)cc(C)c1O | – | 2.6 | –
16 | C=CCc1cc(C(C)(C)c2ccc(O)c(CC=C)c2)ccc1O | – | 2.2 | –
17 | CC(C)c1cc(C(C)(C)c2ccc(O)c(C(C)C)c2)ccc1O | – | 3.4 | –
18 | CC(C)(c1cc(Br)c(O)c(Br)c1)c1cc(Br)c(O)c(Br)c1 | – | 4.7 | Drug uptake (Serum): 0.3 µM; inhibition (Homo sapiens): Active
19 | Oc1ccc(C(c2ccc(O)cc2)(C(F)(F)F)C(F)(F)F)cc1 | Not Active | – | –
20 | CC(C)(c1cc(Br)c(OCCO)c(Br)c1)c1cc(Br)c(OCCO)c(Br)c1 | Not Active | – | –
21 | Oc1c(F)cc(C(c2cc(F)c(O)c(F)c2)(C(F)(F)F)C(F)(F)F)cc1F | – | 2.8 | –
22 | Nc1ccc(C2(c3ccc(N)cc3)CCCCC2)cc1 | Not Active | – | –
23 | CC(C)(C)c1cc(Cc2cc(C(C)(C)C)c(O)c(C(C)(C)C)c2)cc(C(C)(C)C)c1O | – | 16 | –
24 | Cc1ccc(O)c(Cc2cc(C)ccc2O)c1 | – | 300 | –
25 | Nc1ccc(C(c2ccc(N)cc2)(C(F)(F)F)C(F)(F)F)cc1 | Not Active | – | –
26 | Oc1ccc(Cc2ccc(O)cc2)cc1 | Not Active | – | –
